Holding throughout (assay type): cell-based, human
The subject of assay [1] is DU-145 cells. In words: Cell cycle assay (flow cytometry, PI). The note with it: 24 h, highest concentrations. As to the method: Cells were subjected to AQQ1 and DOXO treatments as previously described for apoptosis necrosis analysis. For cell cycle analysis, a cell population of 1 × 10^6 was collected, centrifuged, and the supernatant was removed. The resulting cellular pellet was re-suspended in 70% cold ethanol in PBS. Subsequently, the cells underwent a single PBS wash, followed by incubation in PBS containing […] PI (Sigma-Aldrich, St. Louis, MO, USA) and 2 mg/mL DNase-free RNase-A (Affymetrix, Inc., Santa Barbara, CA, USA) for 30 min at room temperature in a light-protected environment. Analysis was performed using the BD FACS Calibur Flow Cytometry System, and the BD CellQuest Pro Software software (version 5.1, Becton Dickinson, USA) was employed to determine cell cycle phase distributions in comparison to the control group.
For orientation: A flow cytometer gives signals particle by particle.

Assay [2] deals with DU-145 cells. In words: Oxidative stress: intracellular ROS (DCFDA, flow cytometry). As to conditions: 1, 2.5, 5 µM, 24 h. As to the method:
DU-145 cells were initially seeded at a density of 1 × 10^6 cells per well in 6-well plates. Cells were subjected to AQQ1 treatments as described earlier. After an incubation period, the cells were treated with varying concentrations of AQQ1 (1, 2.5, and 5 µM) for 24 h. ROS analysis was carried out using the DCFDA oxidation method according to Eruslanov and Kusmartsev with some modifications. For positive control, the cells were exposed to 100 µM H2O2 for 30 min. Then, the medium was discarded, 20 µM DCDFA (Sigma-Aldrich, USA) in culture medium was added to the wells, and plates were incubated for 15 min in the dark. The cells were analysed with NovoCyte (Agilent, Palo Alto, CA, USA) flow cytometry using NovoExpress version 1.6.2 software (Agilent, USA).

The test system of a further assay is CAKI-1. In words: NCI-60 one-dose screen (renal cancer). As to conditions: 10 µM single dose, 48 h.
A further assay deals with RXF 393. Description: NCI-60 one-dose screen (renal cancer). The note with it: 10 µM single dose, 48 h.
The next assay has as its system M14. Description: NCI-60 one-dose screen (melanoma). The note with it: 10 µM single dose, 48 h.

Each structure is given as a SMILES string.

As to `COc1ccccc1NC1=C(Cl)C(=O)c2nc(C)ccc2C1=O` [AQQ1], the “population of cells in the G0/G1 phase” value in the assay with DU-145 cells [1] is “significantly increased the population of cells in the G0/G1 phase”. In the assay with DU-145 cells [2], the “intracellular ROS levels” value was “significantly increased ROS levels dose-dependently”.
In the case of `COc1cc(NC2=C(Cl)C(=O)c3nc(C)ccc3C2=O)cc(OC)c1` [AQQ5], the entries for the “GP (growth percentage)” value with CAKI-1, in the assay on RXF 393 and in the assay on M14 were −96.53%, −97.24% and −95.99%, respectively.

The values are drawn from paper PMC11200585, “Prospects for Prostate Cancer Chemotherapy: Cytotoxic Evaluation and Mechanistic Insights of Quinolinequinones with ADME/PK Profile” (Biomedicines, 2024).
